In article PMC7016952, “Characterization of the Menin-MLL Interaction as Therapeutic Cancer Target” (Cancers, 2020):

Tests used:
[1] = test system: ER signaling pathway genes in MCF7 tumor samples; assay: Ex vivo gene expression in MCF7 xenografts; parameters: species or system mice; conditions: 27 days of treatment
Protocol: (§1) Total RNA was isolated using RNeasy-Plus Mini kit (Qiagen, Hilden, Germany). RNA (1 μg) was reverse transcribed using SuperScript III First-Strand Synthesis SuperMix (Life Technologies) and the generated cDNA was analyzed with commercial primers (Supplementary Materials Table S1) by qRT-PCR using TaqMan Fast Advanced Master Mix (Life Technologies). For the RNA-seq study, ZR-75-1, BT474, PANC-1, MiaPaCa-2, 22RV1, JMSU-1, DLD-1, SW1463, LoVo and G401 cells were treated with 5 µM BAY-155 or DMSO for 48 h prior to RNA extraction. After 48 h of 5 µM BAY-155 or DMSO treatment, MCF7, VCaP and LNCaP cells were stimulated for further 12 h with 0.1 nM of E2 (ß-Estradiol) or 1 nM R1881, respectively. MCF7, VCaP and LNCaP cells were cultured in starvation medium (containing 5 µM BAY-155 or DMSO) 6 h before stimulation. RNA was isolated using RNeasy-Plus Mini kit (Qiagen). The purified RNA was used for library preparation (Illumina, San Diego, CA, USA. TruSeq Stranded mRNA Kit) and the generated libraries were sequenced (Illumina, HiSeq2500 HTv4, SR, dual-indexing, 50 cycles).
Tumors were harvested, dissociated and total RNA was extracted using the TissueLyser (Qiagen, Hilden, Germany) together with RNeasy-Plus Mini kit according to the manufacturer protocol.

MOLM-13 cells = assay: Proliferation inhibition, MOLM-13; assay type: cell-based, human
CYP 2C9 = CYP 2C9 (Homo sapiens, UniProt P11712); conditions: cited from earlier work
CYP 2C9, sequence (P11712 whole entry): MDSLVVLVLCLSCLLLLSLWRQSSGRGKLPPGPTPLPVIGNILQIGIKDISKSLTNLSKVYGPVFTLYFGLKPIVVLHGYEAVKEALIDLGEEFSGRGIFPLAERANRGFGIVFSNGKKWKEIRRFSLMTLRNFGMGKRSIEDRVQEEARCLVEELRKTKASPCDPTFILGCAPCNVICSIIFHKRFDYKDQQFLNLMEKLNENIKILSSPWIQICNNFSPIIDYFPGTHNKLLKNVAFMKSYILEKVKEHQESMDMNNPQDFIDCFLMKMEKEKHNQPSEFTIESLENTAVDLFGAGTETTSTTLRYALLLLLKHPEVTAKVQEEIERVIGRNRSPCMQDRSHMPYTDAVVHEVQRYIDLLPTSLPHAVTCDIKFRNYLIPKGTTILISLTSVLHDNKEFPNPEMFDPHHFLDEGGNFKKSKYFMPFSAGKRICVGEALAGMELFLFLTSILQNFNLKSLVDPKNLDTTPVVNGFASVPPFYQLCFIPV

CYP 1A2 = CYP 1A2 (Homo sapiens, UniProt P05177); conditions: cited from earlier work
CYP 1A2, sequence (P05177 whole entry): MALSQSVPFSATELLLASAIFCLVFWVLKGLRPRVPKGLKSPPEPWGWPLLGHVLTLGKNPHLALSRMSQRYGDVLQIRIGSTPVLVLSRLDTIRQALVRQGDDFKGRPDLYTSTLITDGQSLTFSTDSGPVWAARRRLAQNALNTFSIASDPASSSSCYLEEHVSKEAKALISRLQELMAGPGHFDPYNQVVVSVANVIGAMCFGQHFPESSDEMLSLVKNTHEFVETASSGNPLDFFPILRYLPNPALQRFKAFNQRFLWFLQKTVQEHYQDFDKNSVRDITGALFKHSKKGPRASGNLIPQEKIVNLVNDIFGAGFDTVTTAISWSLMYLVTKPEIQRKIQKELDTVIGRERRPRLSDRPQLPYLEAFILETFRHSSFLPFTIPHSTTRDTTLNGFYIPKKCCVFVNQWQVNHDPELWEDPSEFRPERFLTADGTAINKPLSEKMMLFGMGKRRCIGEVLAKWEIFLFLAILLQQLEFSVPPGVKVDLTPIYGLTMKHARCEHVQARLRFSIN

menin-MLL interaction [2] = biological target: T1, menin-MLL interaction (Homo sapiens, UniProt O00255); assay: TR-FRET menin-MLL binding assay; conditions: BAY-155 vs MI-503
T1 construct: recombinant full length, His-tagged menin
T1 sequence (O00255 1-610): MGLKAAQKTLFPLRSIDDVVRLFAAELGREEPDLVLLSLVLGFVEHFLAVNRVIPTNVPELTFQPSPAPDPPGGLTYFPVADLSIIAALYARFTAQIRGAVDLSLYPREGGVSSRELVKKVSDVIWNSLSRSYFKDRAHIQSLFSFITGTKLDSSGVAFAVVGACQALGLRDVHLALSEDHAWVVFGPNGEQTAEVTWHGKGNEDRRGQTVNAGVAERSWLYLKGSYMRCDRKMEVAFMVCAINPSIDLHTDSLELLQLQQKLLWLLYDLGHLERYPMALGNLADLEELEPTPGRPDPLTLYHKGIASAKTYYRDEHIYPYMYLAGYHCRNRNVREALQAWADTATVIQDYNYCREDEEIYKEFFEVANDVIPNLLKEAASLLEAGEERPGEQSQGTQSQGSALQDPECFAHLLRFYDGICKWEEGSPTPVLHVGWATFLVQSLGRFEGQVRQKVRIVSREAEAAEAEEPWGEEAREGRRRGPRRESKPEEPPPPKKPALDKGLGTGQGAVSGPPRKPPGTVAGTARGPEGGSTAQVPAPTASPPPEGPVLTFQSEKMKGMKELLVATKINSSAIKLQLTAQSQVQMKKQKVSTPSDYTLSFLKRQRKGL

KYSE-150 xenograft = KYSE-150 xenograft efficacy; assay type: in vivo, mice; conditions: 120 mg/kg QD p.o.
Protocol: (§2) Tumor cells were injected subcutaneously into the flanks of 6- to 9-week old animals. Efficacy studies in xenograft models were performed at Bayer or EPO GmbH (Berlin-Buch, Germany) using NMRI nu/nu, SCID, BALB/c Nude female mice or SCID male mice (VCaP tumors). All animal studies were conducted in accordance with the animal welfare laws and were approved by the State Office for Health and Social Affairs Berlin (LAGeSo). Experiments were run under the animal license B3600a0007. Compound treatment started at a predefined tumor size or burden or at a predefined day after cell inoculation. BAY-155 was administered orally (p.o.) at various doses and regorafenib, tamoxifen and enzalutamide (resuspended in PEG400/H2O 6/4 or PEG400/EtOH 9/1) were used as control treatment for RKO, MCF7 and VCaP xenografts, respectively. Subcutaneous tumor volumes were determined by caliper measurement.

[3] = test system: safety pharmacology relevant proteins (GPCRs, ion channels and transporters); assay: Selectivity panel of safety pharmacology assays; conditions: 10 µM
MV4;11 xenograft = MV4;11 xenograft efficacy; assay type: in vivo, mice
Protocol: as §2, with “BAY-155 was administered orally (p.o.) at various doses and regorafenib, tamoxifen and enzalutamide (resuspended in PEG400/H2O 6/4 or PEG400/EtOH 9/1) were used as control treatment for RKO, MCF7 and VCaP xenografts, respectively.” left out

ZR-75-1 cells = assay: RNA-seq differential gene expression, ZR-75-1; assay type: cell-based; conditions: ZR-75-1, 5 µM, 48 h
Protocol: as §1
RNA-seq reads were aligned to hg38 using STAR aligner. Protein-coding genes with more than 10 reads in more than three samples were used for the analysis (total samples N = 86; genes N = 13,003). […]

VCaP xenograft = VCaP xenograft efficacy; assay type: in vivo, mice
Protocol: as §2

menin-MLL interaction [4] = biological target: T1, menin-MLL interaction; parameters: method as in PMID 31253180; conditions: read-out: Potency IC50 Menin-MLL binding; TR-FRET; previously reported; cited from earlier work
CYP 2D6 = CYP 2D6 (Homo sapiens, UniProt P10635); conditions: cited from earlier work
CYP 2D6, sequence (P10635 whole entry): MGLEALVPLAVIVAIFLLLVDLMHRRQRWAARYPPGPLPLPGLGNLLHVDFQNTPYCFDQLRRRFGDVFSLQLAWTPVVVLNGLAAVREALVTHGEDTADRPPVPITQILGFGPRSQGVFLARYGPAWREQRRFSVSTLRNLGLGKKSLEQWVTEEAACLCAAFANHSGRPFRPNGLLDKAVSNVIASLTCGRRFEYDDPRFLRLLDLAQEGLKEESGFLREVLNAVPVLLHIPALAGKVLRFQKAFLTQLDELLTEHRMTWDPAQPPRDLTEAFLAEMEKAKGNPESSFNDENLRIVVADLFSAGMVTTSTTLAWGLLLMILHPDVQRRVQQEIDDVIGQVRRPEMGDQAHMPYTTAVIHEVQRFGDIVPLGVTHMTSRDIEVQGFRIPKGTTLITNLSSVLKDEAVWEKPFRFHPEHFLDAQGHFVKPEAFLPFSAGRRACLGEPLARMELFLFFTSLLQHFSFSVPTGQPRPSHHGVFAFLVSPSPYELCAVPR

[5] = cited from earlier work

Q: Which “EGR3, GREB1 and PGR1 expression ex vivo” value [1] does the source give for `Cc1c(CN2CCC3(CC2)CN(c2ncnc4sc(CC(F)(F)F)cc24)C3)ccc2c1cc(C#N)n2CC(N)=O` [BAY-155] here?
A: no significant effects

Q: And the “fold improved proliferation inhibition vs MI-503” value (MOLM-13 cells)?
A: 6.3 fold

Q: What about the IC50 (CYP 2C9) of the same compound?
A: > 20 µM

Q: What about the IC50 (CYP 1A2) of the same compound?
A: > 20 µM

Q: What about the “fold better inhibitory IC50 compared to MI-503” value (menin-MLL interaction [2]) of the same compound?
A: 10 fold

Q: What about the “tumor volume T/C” value (KYSE-150 xenograft) of the same compound?
A: 0.67

Q: And the tumor weight (KYSE-150 xenograft)?
A: significant decrease in tumor weight

Q: And the “number of tested proteins inhibited by ≥ 50%” value [3]?
A: 7

Q: And the “cases in which an IC50 value could be reached” value ([3]; of 77 targets)?
A: 7/77

Q: And the body weight (MV4;11 xenograft; 180 mg/kg 2QD p.o.)?
A: no evidence of body weight loss

Q: And the “tumor volume T/C” value (MV4;11 xenograft; 180 mg/kg 2QD p.o., regression)?
A: < 0.02

Q: What about the tumor weights (MV4;11 xenograft; p.o.) of the same compound?
A: clear concentration-dependent trend for reduced tumor weights

Q: What about the “number of differentially expressed genes” value (ZR-75-1 cells) of the same compound?
A: 10 genes

Q: What about the “tumor volume and tumor weight” value (VCaP xenograft) of the same compound?
A: no significant effects

Q: What about the IC50 (menin-MLL interaction [4]) of the same compound?
A: 0.008 µM

Q: And the IC50 (CYP 2D6)?
A: > 20 µM

Q: What about the “Caco2 permeability Papp(A-B)” value ([5]; Caco-2, pH 7.2) of the same compound?
A: 2.64 ×10⁻⁶ cm/s

Q: What about the “Caco2 permeability efflux ratio” value ([5]; Caco-2) of the same compound?
A: 6.4
